From US20160296511A1, “LAQUINIMOD FOR REDUCING THALAMIC DAMAGE IN MULTIPLE SCLEROSIS” (Teva Pharmaceutical Industries, Ltd., priority 2012, published 2016)

Tested on: subjects with RRMS
Assay: ALLEGRO sub-study: evolution of GdE and new T2 lesions into permanent black holes (PBH), frequent MRI group
Assay type: in vivo, human
Conditions: for Number of PBH from GdE lesions, adjusted mean (SE) / PBH from GdE lesions, RR (risk ratio) laquinimod vs placebo / Number of PBH from active lesions, adjusted mean (SE) / Number of PBH from new T2 lesions, mean (SE) / PBH from active lesions, RR (risk ratio) laquinimod vs placebo / PBH from new T2 lesions, RR (risk ratio) laquinimod vs placebo: 0.6 mg
From the text: A subset of patients in ALLEGRO comprised a “frequent MRI” group for PBH analysis; these patients had MRIs taken at months 3, 6, 12 and 24. Patients in the frequent MRI group with active lesions at baseline or during the study were included in the PBH analysis. A negative binomial regression analysis was used to estimate the mean number of PBH at months 12 and 24 that evolved from GdE and new T2 lesions detected at various time points in the study in the “frequent MRI” subgroup.

[1] = PBH at Month 12 from lesions at Baseline
[2] = PBH at Month 12 from lesions at Month 3
[3] = PBH at Month 12 from lesions at Months 3 and 6
[4] = PBH at Month 24 from All lesions
[5] = PBH at Month 24 from lesions at Baseline
[6] = PBH at Month 24 from lesions at Month 3
[7] = PBH at Month 24 from lesions at Months 3, 6, and 12

CCN(C(=O)c1c(O)c2c(Cl)cccc2n(C)c1=O)c1ccccc1 [Laquinimod]
Number of PBH from GdE lesions, adjusted mean (SE) [1]: 0.5 (0.16) [26]
PBH from GdE lesions, RR (risk ratio) laquinimod vs placebo [1]: 0.53
Number of PBH from GdE lesions, adjusted mean (SE) [2]: 0.6 (0.25) [14]
Number of PBH from active lesions, adjusted mean (SE) [2]: 0.41 (0.14) [29]
Number of PBH from new T2 lesions, mean (SE) [2]: 0.40 (0.15) [28]
PBH from GdE lesions, RR (risk ratio) laquinimod vs placebo [2]: 0.58
PBH from active lesions, RR (risk ratio) laquinimod vs placebo [2]: 0.44
PBH from new T2 lesions, RR (risk ratio) laquinimod vs placebo [2]: 0.52
Number of PBH from GdE lesions, adjusted mean (SE) [3]: 0.6 (0.18) [25]
Number of PBH from active lesions, adjusted mean (SE) [3]: 0.59 (0.15) [41]
Number of PBH from new T2 lesions, mean (SE) [3]: 0.57 (0.16) [40]
PBH from GdE lesions, RR (risk ratio) laquinimod vs placebo [3]: 0.45
PBH from active lesions, RR (risk ratio) laquinimod vs placebo [3]: 0.42
PBH from new T2 lesions, RR (risk ratio) laquinimod vs placebo [3]: 0.48
Number of PBH from GdE lesions, adjusted mean (SE) [4]: 1.0 (0.20) [41]
Number of PBH from active lesions, adjusted mean (SE) [4]: 1.20 (0.19) [55]
Number of PBH from new T2 lesions, mean (SE) [4]: 0.87 (0.17) [51]
PBH from GdE lesions, RR (risk ratio) laquinimod vs placebo [4]: 0.45
PBH from active lesions, RR (risk ratio) laquinimod vs placebo [4]: 0.51
PBH from new T2 lesions, RR (risk ratio) laquinimod vs placebo [4]: 0.52
Number of PBH from GdE lesions, adjusted mean (SE) [5]: 0.6 (0.17) [26]
PBH from GdE lesions, RR (risk ratio) laquinimod vs placebo [5]: 0.65
Number of PBH from GdE lesions, adjusted mean (SE) [6]: 0.6 (0.24) [14]
Number of PBH from active lesions, adjusted mean (SE) [6]: 0.47 (0.14) [29]
Number of PBH from new T2 lesions, mean (SE) [6]: 0.43 (0.14) [28]
PBH from GdE lesions, RR (risk ratio) laquinimod vs placebo [6]: 0.55
PBH from active lesions, RR (risk ratio) laquinimod vs placebo [6]: 0.45
PBH from new T2 lesions, RR (risk ratio) laquinimod vs placebo [6]: 0.50
Number of PBH from GdE lesions, adjusted mean (SE) [7]: 0.7 (0.19) [32]
Number of PBH from active lesions, adjusted mean (SE) [7]: 0.95 (0.18) [52]
Number of PBH from new T2 lesions, mean (SE) [7]: 0.87 (0.17) [51]
PBH from GdE lesions, RR (risk ratio) laquinimod vs placebo [7]: 0.44
PBH from active lesions, RR (risk ratio) laquinimod vs placebo [7]: 0.50
PBH from new T2 lesions, RR (risk ratio) laquinimod vs placebo [7]: 0.52
Number of PBH evolved from GdE lesions present at baseline, placebo vs laquinimod (at 12 and 24 months): no difference
